According to patent US11945826B2, “Hydroxypyridoxazepines as NRF2 activators” (GLAXOSMITHKLINE INTELLECTUAL PROPERTY DEVELOPMENT LIMITED, priority 2019, dated 2024):

Each compound was assayed on Nrf2 (NQO1 activity in BEAS-2B cells) (assay: BEAS-2B NQO1 MTT Assay). Conditions: Homo sapiens, 48 hours, NQO1 specific activity induction, read-out: EC50.
Assay type: cell-based
From the text: NAD(P)H:quinone oxidoreductase 1 (NQO1), also called DT diaphorase, is a homodimeric FAD-containing enzyme that catalyzes obligatory NAD(P)H-dependent two-electron reductions of quinones and protects cells against the toxic and neoplastic effects of free radicals and reactive oxygen species arising from one-electron reductions. The transcription of NQO1 is finely regulated by Nrf2, and thus NQO1 activity is a good marker for Nrf2 activation. On day one, frozen BEAS-2B cells (ATCC) were thawed in a water bath, counted, and re-suspended at a concentration of 250,000 cells/mL. Fifty microliters of cells were plated in 384 well black clear-bottomed plates. Plates were incubated at 37° C., 5% CO2 overnight. On day two, plates were centrifuged and 50 nL of compound or controls were added to the cells. Plates were then incubated at 37° C., 5% CO2 for 48 hours. On day four, medium was aspirated from the plate and crude cell lysates were made by adding 13 μL of 1× Cell Signalling Technologies lysis buffer with 1 Complete, Mini, EDTA-free Protease Inhibitor Tablet (Roche) for each 10 mL of lysis buffer. After lysis plates were incubated for 20 minutes at room temperature. Two microliters of lysate were removed for use in Cell Titer Glo assay (Promega) and MTT cocktail was prepared (Prochaska et. al. 1998) for measurement of NQO1 activity. Fifty microliters of MTT cocktail was added to each well, plate was centrifuged, and analyzed on an Envision plate reader (Perkin Elmer) using Absorbance 570 nm label for 30 minutes. Product formation was measured kinetically and the pEC50 of NQO1 specific activity induction was calculated by plotting the change in absorbance (Delta OD/min) versus the log of compound concentration followed by 3-parameter fitting.
EC50s<1 nM (+++++), EC50s 1 nM-10 nM (++++), EC50s 10 nM-100 nM (+++), EC50s 100 nM-1 μM (++), EC50s 1 μM-10 μM (+).

Structure (SMILES) | EC50 [µM]
Cc1ccc([C@@H](CC(=O)O)c2ccc3c(nnn3C)c2C)cc1CN1Cc2nc(O)ccc2O[C@H](C(C)(C)C)C1 [Example 30, (R)-3-(3-(((R)-2-(tert-butyl)-7-hydroxy-2,3-dihydropyrido[2,3-f][1,4]oxazepin-4(5H)-yl)methyl)-4-methylphenyl)-3-(1,4-dimethyl-1H-benzo[d][1,2,3]triazol-5-yl)propanoic acid] | 0.01 to 0.1
Cc1ccc([C@@H](c2ccc3c(nnn3C)c2C)C(C)(C)C(=O)O)cc1CN1Cc2nc(O)ccc2OC(C)(C)C1 [Example 17, (S)-3-(1,4-dimethyl-1H-benzo[d][1,2,3]triazol-5-yl)-3-(3-((7-hydroxy-2,2-dimethyl-2,3-dihydropyrido[2,3-f][1,4]oxazepin-4(5H)-yl)methyl)-4-methylphenyl)-2,2-dimethylpropanoic acid] | 0.001 to 0.01
CC[C@@H]1CN(Cc2cc([C@H](CC(=O)O)c3ccc4c(nnn4C)c3C)ccc2C)Cc2nc(O)ccc2O1 [Example 10, (S)-3-(1,4-dimethyl-1H-benzo[d][1,2,3]triazol-5-yl)-3-(3-(((R)-2-ethyl-7-hydroxy-2,3-dihydropyrido[2,3-f][1,4]oxazepin-4(5H)-yl)methyl)-4-methylphenyl)propanoic acid] | 0.01 to 0.1
Cc1ccc([C@@H](c2ccc3c(nnn3C)c2C)C(C)(C)C(=O)O)cc1CN1Cc2nc(O)ccc2O[C@H](C(C)C)C1 [Example 15, (S)-3-(1,4-dimethyl-1H-benzo[d][1,2,3]triazol-5-yl)-3-(3-(((R)-7-hydroxy-2-isopropyl-2,3-dihydropyrido[2,3-f][1,4]oxazepin-4(5H)-yl)methyl)-4-methylphenyl)-2,2-dimethylpropanoic acid] | < 0.001
CC[C@@H]1CN(Cc2cc([C@@H](CC(=O)O)c3ccc4c(nnn4C)c3C)ccc2C)Cc2nc(O)c(F)cc2O1 [Example 22, (R)-3-(1,4-dimethyl-1H-benzo[d][1,2,3]triazol-5-yl)-3-(3-(((R)-2-ethyl-8-fluoro-7-hydroxy-2,3-dihydropyrido[2,3-f][1,4]oxazepin-4(5H)-yl)methyl)-4-methylphenyl)propanoic acid] | 0.001 to 0.01
Cc1ccc([C@@H](CC(=O)O)c2ccc3c(nnn3C)c2C)cc1CN1Cc2nc(O)ccc2OC(C)(C)C1 [Example 5, (R)-3-(1,4-dimethyl-1H-benzo[d][1,2,3]triazol-5-yl)-3-(3-((7-hydroxy-2,2-dimethyl-2,3-dihydropyrido[2,3-f][1,4]oxazepin-4(5H)-yl)methyl)-4-methylphenyl)propanoic acid] | 0.01 to 0.1
CC[C@@]1(C)CN(Cc2cc([C@@H](CC(=O)O)c3ccc4c(nnn4C)c3C)ccc2C)Cc2nc(O)ccc2O1 [Example 27, (R)-3-(1,4-dimethyl-1H-benzo[d][1,2,3]triazol-5-yl)-3-(3-(((S)-2-ethyl-7-hydroxy-2-methyl-2,3-dihydropyrido[2,3-f][1,4]oxazepin-4(5H)-yl)methyl)-4-methylphenyl)propanonic acid] | 0.01 to 0.1
Cc1ccc([C@@H](CC(=O)O)c2ccc3c(nnn3C)c2C)cc1CN1Cc2nc(O)ccc2O[C@@H](C(F)(F)F)C1 [Example 20, (R)-3-(1,4-dimethyl-1H-benzo[d][1,2,3]triazol-5-yl)-3-(3-(((R)-7-hydroxy-2-(trifluoromethyl)-2,3-dihydropyrido[2,3-f][1,4]oxazepin-4(5H)-yl)methyl)-4-methylphenyl)propanoic acid] | 1 to 10
CC[C@H]1CN(Cc2cc([C@H](CC(=O)O)c3ccc4c(nnn4C)c3C)ccc2C)Cc2nc(O)ccc2O1 [Example 12, (S)-3-(1,4-dimethyl-1H-benzo[d][1,2,3]triazol-5-yl)-3-(3-(((S)-2-ethyl-7-hydroxy-2,3-dihydropyrido[2,3-f][1,4]oxazepin-4(5H)-yl)methyl)-4-methylphenyl)propanoic acid] | 1 to 10
Cc1ccc([C@@H](CC(=O)O)c2ccc3c(nnn3C)c2C)cc1CN1Cc2nc(O)ccc2OC2(CCC2)C1 [Example 29] | 0.01 to 0.1
Cc1ccc([C@@H](c2ccc3c(nnn3C)c2C)C(C)(C)C(=O)O)cc1CN1Cc2nc(O)ccc2O[C@@H](C(C)C)C1 [Example 16, (S)-3-(1,4-dimethyl-1H-benzo[d][1,2,3]triazol-5-yl)-3-(3-(((S)-7-hydroxy-2-isopropyl-2,3-dihydropyrido[2,3-f][1,4]oxazepin-4(5H)-yl)methyl)-4-methylphenyl)-2,2-dimethylpropanoic acid] | 0.001 to 0.01
Cc1ccc([C@H](CC(=O)O)c2ccc3c(nnn3C)c2C)cc1CN1Cc2nc(O)ccc2O[C@@H](C(F)(F)F)C1 [Example 28, (S)-3-(1,4-dimethyl-1H-benzo[d][1,2,3]triazol-5-yl)-3-(3-(((R)-7-hydroxy-2-(trifluoromethyl)-2,3-dihydropyrido[2,3-f][1,4]oxazepin-4(5H)-yl)methyl)-4-methylphenyl)propanoic acid] | 1 to 10

Each compound was assayed on murine TAC model (assay: Mouse Transverse Aortic Constriction (TAC) Left Ventricular Pressure Overload Model). Conditions: 10-week mouse TAC, daily in chow for eight weeks from 2 weeks after TAC; Example 1 at 1, 3, 10 mg/kg/d, Example B at 100 mg/kg/d.
Assay type: in vivo, C57BLK/6J mice
From the text: Male C57BLK/6J mice (10-12 weeks old) were individually housed and acclimated to a standard powdered rodent diet for 1-3 days. Water was offered ad libitum throughout the study. Mice were initially anesthetized in a chamber using an 3% isoflurane with oxygen (1.0 L/min), and then maintained at 1.5% via nose cone (without intubation). A small incision (˜5 mm) was made just left of midline and just above the rib cage at the level of the suprasternal notch. The muscle tissue was retracted to expose the area above the pleural cavity. The lobes of the thymus were separated and retracted to expose the aortic arch. Fine surgical forceps with blunted tips were used to expose a region above and below the aorta. A micro blunt hook tied with 7-0 silk surgical suture was looped under the aorta and the suture pulled through. The suture was tied-off against a small piece of blunted 27 G needle and the needle was then removed creating the aortic constriction (a 60-70% constriction of the lumen). The incision was closed using 6-0 silk suture for the muscle layer, then the skin with Medbond. The sham procedure was identical without ligation of aorta. Depending on the individual study designs, drug administration began either on the day of surgery, or 1-2 weeks after surgery (detailed in figure legends) and continued until the end of study. Compounds were administered in the mouse chow unless otherwise noted in FIG. 12 legends. TAC study duration was either 6 weeks or 10 weeks in duration. All TAC study endpoints were collected at the end of study. Following heart dissections, samples were either snap frozen in liquid nitrogen and stored at −80° C. or placed in 10% neutral buffered formalin until analysis.
Echocardiography: For mouse TAC studies, echocardiography was performed on a Vevo 2100 high frequency imaging system. Animals were anesthetized with 2-3% isoflurane and sedation maintained with 1% isoflurane with animals on a heating pad. B-mode imaging of three cardiac cycles was used to assess ejection fraction (EF), end diastolic volume (EDV), end systolic volume (ESV), LV mass, and heart rate. ECG was used to measure heart rate during the echocardiography procedure.
NADPH dehydrogenase [quinone]-1 (NQO1) activity: Left ventricular (LV) tissue NQO1 activity was determined using an NQO1 assay kit per manufacturer's protocol (Abcam, Cambridge MA)
The KEAP1 blockers/Nrf2 activators, (R)-3-(1,4-dimethyl-1H-benzo[d][1,2,3]triazol-5-yl)-3-(3-(((R)-2-ethyl-7-hydroxy-2,3-dihydropyrido[2,3-f][1,4]oxazepin-4(5H)-yl)methyl)-4-methylphenyl)propanoic acid, hydrochloride, or a tautomer thereof (Example 1) (in dose-response) and (S)-3-(1,4-dimethyl-1H-benzo[d][1,2,3]triazol-5-yl)-3-(3-(((R)-2-ethyl-2,3-dihydropyrido[3,4-f][1,4]oxazepin-4(5H)-yl)methyl)-4-methylphenyl)-2,2-dimethylpropanoic acid (Example B) were evaluated in a 10-week mouse TAC model of severe hemodynamic stress.
FIG. 12 depicts the effect of the KEAP1-kelch domain blockers/Nrf2 activators (R)-3-(1,4-dimethyl-1H-benzo[d][1,2,3]triazol-5-yl)-3-(3-(((R)-2-ethyl-7-hydroxy-2,3-dihydropyrido[2,3-f][1,4]oxazepin-4(5H)-yl)methyl)-4-methylphenyl)propanoic acid, hydrochloride, or a tautomer thereof (Compound of Example 1) and (S)-3-(1,4-dimethyl-1H-benzo[d][1,2,3]triazol-5-yl)-3-(3-(((R)-2-ethyl-2,3-dihydropyrido[3,4-f][1,4]oxazepin-4(5H)-yl)methyl)-4-methylphenyl)-2,2-dimethylpropanoic acid (Compound B) on cardiac function, remodeling, and NQO1 enzyme activity in the murine 10-week TAC model. All compounds were dosed in chow beginning 2-weeks after TAC. […]

Structure (SMILES) | cardiac function as assessed by ejection fraction
CC[C@@H]1CN(Cc2cc([C@@H](c3ccc4c(nnn4C)c3C)C(C)(C)C(=O)O)ccc2C)Cc2cnccc2O1 [Example B, (S)-3-(1,4-dimethyl-1H-benzo[d][1,2,3]triazol-5-yl)-3-(3-(((R)-2-ethyl-2,3-dihydropyrido[3,4-f][1,4]oxazepin-4(5H)-yl)methyl)-4-methylphenyl)-2,2-dimethylpropanoic acid, reference compound] | full normalization of cardiac function

Same assay, conditions: 10-week mouse TAC, daily in chow for eight weeks; Example 1 at 1, 3, 10 mg/kg/d, Example B at 100 mg/kg/d

Structure (SMILES) | NAD(P)H quinone oxidoreductase 1 (NQO1) in the LV | cardiac hypertrophy (left ventricular mass) | unloading the heart (blood pressure) or heart rate
CC[C@@H]1CN(Cc2cc([C@@H](c3ccc4c(nnn4C)c3C)C(C)(C)C(=O)O)ccc2C)Cc2cnccc2O1 [Example B, (S)-3-(1,4-dimethyl-1H-benzo[d][1,2,3]triazol-5-yl)-3-(3-(((R)-2-ethyl-2,3-dihydropyrido[3,4-f][1,4]oxazepin-4(5H)-yl)methyl)-4-methylphenyl)-2,2-dimethylpropanoic acid, reference compound] | significant dose-related elevations | did not influence cardiac hypertrophy | nor did the ejection fraction change occur by unloading the heart (i.e., lowering blood pressure) or increasing the heart rate
